Marks after values point to notes of the source that are not given here.
Tested on: homozygous deletion mutant (HH80)
Test: Growth of CaNik1 deletion mutant HH80 spot plated on agar plates with supplements (osmotic agents, inhibitors, carbon sources)
Type: cell-based, Candida albicans
Conditions: for Differential sensitivity: growth of mutant strain HH80 versus control strains CAI8 and CAI8U5: agar with modified Lee's medium plus ingredient, 25° C. and 37° C., three independent experiments; for Phenotypic effect in HH80: growth on agar plates: Lee's modified medium or YPD, 2 or 3 days at 25° C. and 37° C.
Method: Finally, growth of the CaNik1 deletion mutant HH80 was tested at 25° C. and 37° C. for differential sensitivity to osmotic strength and a variety of inhibitors.

| Compound | Differential sensitivity: growth of mutant strain HH80 versus control strains CAI8 and CAI8U5 | also measured |
| --- | --- | --- |
| Cn1c(=O)c2c(ncn2C)n(C)c1=O [Caffeine] | no qualitative differences | – |
| O=S(=O)([O-])c1cc(Nc2nc(Nc3ccccc3)nc(N(CCO)CCO)n2)ccc1/C=C/c1ccc(Nc2nc(Nc3ccccc3)nc(N(CCO)CCO)n2)cc1S(=O)(=O)[O-].[Na+].[Na+] [Calcofluor] | no qualitative differences | Phenotypic effect in HH80: growth on agar plates (Calcofluor 20-40 μg/mL): +++^v |
| [Cl-].[K+] [KCl] | no qualitative differences | Phenotypic effect in HH80: growth on agar plates (1 M KCl): ++ |
| O=S(=O)([O-])[O-].[Mg+2] [MgSO4] | no qualitative differences | Phenotypic effect in HH80: growth on agar plates (0.5 m MgSO4): ++ |
| [Cl-].[Na+] [NaCl] | no qualitative differences | Phenotypic effect in HH80: growth on agar plates (1 M NaCl): ++; Phenotypic effect in HH80: growth on agar plates (1.5 M NaCl): + |
| OC[C@@H](O)[C@@H](O)[C@H](O)[C@@H](O)CO [Sorbitol] | no qualitative differences | Phenotypic effect in HH80: growth on agar plates (1.2 M Sorbitol): ++++ |
| OC[C@@H](O)[C@H](O)[C@@H](O)CO [Xylitol] | – | Phenotypic effect in HH80: growth on agar plates (1 M Xylitol): ++++ |
| polymyxin B | no qualitative differences | – |

Reference: patent publication US6803191B2, “Candida albicans two-component hybrid kinase gene, CaNik1, and use thereof” (University of Iowa Research Foundation, priority 1997, dated 2004)
